Laboratory results reported in patent US12569471B2, “Method of treatment of CNS disorders” (Supernus Pharmaceuticals, Inc., priority 2009, dated 2026).

Assays:
[1] = molecular target: T1, μ-opioid receptors in the guinea pig ileum (Cavia porcellus, UniProt A0ACM8Q262); assay: μ-opioid receptor bioassay, test for agonist activity (twitch contraction amplitude); conditions: for agonist activity: decrease in twitch contraction amplitude, +Naloxone / agonist activity: decrease in twitch contraction amplitude: mean, n=2
[2] = molecular target: T2, Delta2(h) opioid receptor (Homo sapiens, UniProt P41143); assay: heterologous competition (displacement) assay, delta opioid receptor; format: binding; conditions: 10 μM mazindol; [3H] [D-Ala2, D-Leu5] enkephalin 0.5 nM; 120 min/22° C.
T2 construct: expressed in transfected cells; host or cells: CHO cell line
Experimental: (§1) A heterologous competition assay was used to determine the relative affinity of mazindol for opioid receptors. Briefly, recombinant μ-, κ- or δ-opioid receptors were expressed in a CHO cell line. The receptors were then saturated with a tritiated receptor-specific ligand at concentrations known to be saturating. Thereupon, 10 μM mazindol was added to the cells in the presence of non-specific ligand and incubated. In this way, mazindol was allowed to “compete” with the receptor-specific ligand, such that greater displacement (i.e., % inhibition) is indicative of greater binding strength of mazindol at a given receptor. “Specific binding” refers here to the difference in the binding of the ligand to the receptors in the presence or absence of an excess of the mazindol.

[3] = molecular target: T3, Kappa (rat) opioid receptor (Rattus norvegicus, UniProt P34975); assay: heterologous competition (displacement) assay, kappa opioid receptor; format: binding; conditions: 10 μM mazindol; [3H]U 69593 1 nM; 60 min/22° C.
T3 construct: expressed in transfected cells; host or cells: CHO cell line
Experimental: as §1

human μ-opioid receptor = molecular target: T4, human μ-opioid receptor (Homo sapiens, UniProt P35372); assay: heterologous competition (displacement) assay and IC50 determination, μ-opioid receptor; format: binding; design: binding at the μ-opioid receptor (specific binding), 1st test / binding at the μ-opioid receptor (specific binding), 2nd Test / binding at the μ-opioid receptor (specific binding), Mean: unit not given here
T4 construct: expressed in transfected cells; host or cells: CHO cell line
Experimental: as §1
For this experiment, a range of mazindol concentrations was selected for the ligand blocking assay. The IC50 was determined using non-linear regression analysis of the competition curves using a Hill equation curve fitting (Y=D+[(A−D)/(1+(C/C50)nH)], where Y=specific binding, D=minimum specific binding, A=maximum specific binding, C=compound concentration, C50=IC50, and nH=slope factor). The inhibition constants Ki were calculated using Cheng Prusoff equation. Ki is defined as the concentration of the competing ligand (mazindol) that bound to half the binding sites at equilibrium in the absence of radioligand or other competitors.

[4] = molecular target: dopamine reuptake transporter (Homo sapiens, UniProt Q01959); conditions: background statement; cited from earlier work
[5] = molecular target: noradrenergic reuptake transporter (Homo sapiens, UniProt P23975); conditions: background statement; cited from earlier work
[6] = molecular target: serotonergic reuptake transporter (Homo sapiens, UniProt P31645); conditions: background statement; cited from earlier work
H1 receptor = H1 receptor (Homo sapiens, UniProt P35367); conditions: background statement; cited from earlier work
[7] = molecular target: T1, μ-opioid receptors in the guinea pig ileum; assay: μ-opioid receptor bioassay, test for antagonist activity (DAMGO-induced decrease in twitch contraction amplitude); conditions: for antagonist activity: response to DAMGO (1.0E−07M) in presence of compound: mean, n=2

C[C@@H](NC(=O)[C@@H](N)Cc1ccc(O)cc1)C(=O)NCC(=O)N(C)[C@@H](Cc1ccccc1)C(=O)NCCO [DAMGO]
agonist activity: decrease in twitch contraction amplitude, +Naloxone ([1]; compound 1.0E−07M + Naloxone (1.0E−07M)): −10% of the control response to DAMGO | agonist activity: decrease in twitch contraction amplitude ([1]; compound 1.0E−07 M): 104% of the control response to DAMGO | agonist activity: decrease in twitch contraction amplitude ([1]; compound 1.0E−08 M): 62% of the control response to DAMGO | agonist activity: decrease in twitch contraction amplitude ([1]; compound 1.0E−09 M): 14% of the control response to DAMGO

OC1(c2ccc(Cl)cc2)c2ccccc2C2=NCCN21 (stereo not shown) [mazindol, 5-(p-chloropheny)-2,5-dihydro-3H-imidazo[2,1-a] isoindol-5-ol]
inhibition at 10 µM [2]: 14% | % Inhib. [3]: 33% | IC50 (human μ-opioid receptor): 0.69 µM | Ki (human μ-opioid receptor): 0.28 µM | inhibition at 10 µM (human μ-opioid receptor; 10 μM mazindol, [3H] Ala2-MePhe4-Gly5-Enkephalin 0.5 nM, 120 min/22° C.): 84% | nH (slope factor) (human μ-opioid receptor; M (h) (MOP) (agonist site)): 0.8 | binding at the μ-opioid receptor (specific binding), 1st test (human μ-opioid receptor; mazindol 1.0E−04 M): 5.8 | binding at the μ-opioid receptor (specific binding), 2nd Test (human μ-opioid receptor; mazindol 1.0E−04 M): 7.4 | binding at the μ-opioid receptor (specific binding), Mean (human μ-opioid receptor; mazindol 1.0E−04 M): 6.6 | binding at the μ-opioid receptor (specific binding), 1st test (human μ-opioid receptor; mazindol 1.0E−05 M): 12.6 | binding at the μ-opioid receptor (specific binding), 2nd Test (human μ-opioid receptor; mazindol 1.0E−05 M): 13.0 | binding at the μ-opioid receptor (specific binding), Mean (human μ-opioid receptor; mazindol 1.0E−05 M): 12.8 | binding at the μ-opioid receptor (specific binding), 1st test (human μ-opioid receptor; mazindol 1.0E−06 M): 42.4 | binding at the μ-opioid receptor (specific binding), 2nd Test (human μ-opioid receptor; mazindol 1.0E−06 M): 41.7 | binding at the μ-opioid receptor (specific binding), Mean (human μ-opioid receptor; mazindol 1.0E−06 M): 42.0 | binding at the μ-opioid receptor (specific binding), 1st test (human μ-opioid receptor; mazindol 1.0E−07 M): 83.2 | binding at the μ-opioid receptor (specific binding), 2nd Test (human μ-opioid receptor; mazindol 1.0E−07 M): 83.2 | binding at the μ-opioid receptor (specific binding), Mean (human μ-opioid receptor; mazindol 1.0E−07 M): 83.2 | binding at the μ-opioid receptor (specific binding), 1st test (human μ-opioid receptor; mazindol 3.0E−05 M): 9.1 | binding at the μ-opioid receptor (specific binding), 2nd Test (human μ-opioid receptor; mazindol 3.0E−05 M): 7.6 | binding at the μ-opioid receptor (specific binding), Mean (human μ-opioid receptor; mazindol 3.0E−05 M): 8.3 | binding at the μ-opioid receptor (specific binding), 1st test (human μ-opioid receptor; mazindol 3.0E−06 M): 24.7 | binding at the μ-opioid receptor (specific binding), 2nd Test (human μ-opioid receptor; mazindol 3.0E−06 M): 26.4 | binding at the μ-opioid receptor (specific binding), Mean (human μ-opioid receptor; mazindol 3.0E−06 M): 25.5 | binding at the μ-opioid receptor (specific binding), 1st test (human μ-opioid receptor; mazindol 3.0E−07 M): 58.2 | binding at the μ-opioid receptor (specific binding), 2nd Test (human μ-opioid receptor; mazindol 3.0E−07 M): 60.9 | binding at the μ-opioid receptor (specific binding), Mean (human μ-opioid receptor; mazindol 3.0E−07 M): 59.5 | binding at the μ-opioid receptor (specific binding), 1st test (human μ-opioid receptor; mazindol 3.0E−08 M): 102.1 | binding at the μ-opioid receptor (specific binding), 2nd Test (human μ-opioid receptor; mazindol 3.0E−08 M): 97.5 | binding at the μ-opioid receptor (specific binding), Mean (human μ-opioid receptor; mazindol 3.0E−08 M): 99.8 | binding activity at dopamine reuptake transporter [4]: specific inhibitory binding activity | binding activity at noradrenergic reuptake transporter [5]: specific inhibitory binding activity | binding activity at serotonergic reuptake transporter [6]: specific inhibitory binding activity | binding at the H1 receptor (H1 receptor): moderately potent binding | agonist activity: decrease in twitch contraction amplitude ([1]; compound 1.0E−05 M): 94% of the control response to DAMGO | agonist activity: decrease in twitch contraction amplitude ([1]; compound 1.0E−06 M): 25% of the control response to DAMGO | agonist activity: decrease in twitch contraction amplitude ([1]; compound 1.0E−07 M): 1% of the control response to DAMGO | agonist activity: decrease in twitch contraction amplitude, +Naloxone ([1]; compound 3.0E−05M + Naloxone (1.0E−07M)): 5% of the control response to DAMGO | agonist activity: decrease in twitch contraction amplitude ([1]; compound 3.0E−05 M): 103% of the control response to DAMGO | agonist activity: decrease in twitch contraction amplitude ([1]; compound 3.0E−06 M): 64% of the control response to DAMGO | agonist activity: decrease in twitch contraction amplitude ([1]; compound 3.0E−07 M): 9% of the control response to DAMGO | effect on twitch contraction amplitude ([1]; guinea pig ileum): concentration-dependent decrease in the twitch contraction amplitude | nature of the binding (agonist or antagonist) at the μ-opioid receptors ([1]; guinea pig ileum): behaves as an agonist | reversal of the agonist-like response by reference antagonist naloxone ([1]; guinea pig ileum): fully reversed by naloxone | EC50 ([1]; read-out: Agonist activity EC50 value, guinea pig ileum, linear regression of concentration-response curve): 2 µM | antagonist activity: response to DAMGO (1.0E−07M) in presence of compound ([7]; compound 1.0E−05 M): 105% of the control response to DAMGO | antagonist activity: response to DAMGO (1.0E−07M) in presence of compound ([7]; compound 1.0E−06 M): 100% of the control response to DAMGO | antagonist activity: response to DAMGO (1.0E−07M) in presence of compound ([7]; compound 1.0E−07 M): 100% of the control response to DAMGO | antagonist activity: response to DAMGO (1.0E−07M) in presence of compound ([7]; compound 3.0E−05 M): 107% of the control response to DAMGO | antagonist activity: response to DAMGO (1.0E−07M) in presence of compound ([7]; compound 3.0E−06 M): 102% of the control response to DAMGO | antagonist activity: response to DAMGO (1.0E−07M) in presence of compound ([7]; compound 3.0E−07 M): 100% of the control response to DAMGO | Antagonist activity IC50 value ([7]; guinea pig ileum): no antagonist effect | concentrations causing a further decrease in twitch contraction amplitude beyond DAMGO ([7]; guinea pig ileum): higher than 1.0E-06 M | effect on the DAMGO-induced decrease in twitch contraction amplitude ([7]; guinea pig ileum): did not reverse the DAMGO-induced decrease in twitch contraction amplitude
